Reference: patent US8648061B2, “Use of polyunsaturated fatty acids for the primary prevention of major cardiovascular events” (Pro Aparts Investimentos E. Consultoria LDA., priority 2001, dated 2014)

Tested on: non-anesthetized guinea pigs
Test: preliminary tests: minimum lethal dose of ouabain
Type: in vivo, guinea pig
Settings: intravenously administered over 3 minutes
Procedure: The experimental sudden death model was obtained by cardiac arrest induced by intravenous (i.v.) administration of a cardiotoxic agent (ouabain). In preliminary tests, various doses of ouabain were administered to non-anesthetized guinea pigs of both sexes of weight 300-380 g, in order to determine the minimum lethal dose for 100% of the animals within 15 minutes from i.v. injection (240 mg/kg, intravenously administered over 3 minutes).

C[C@@H]1O[C@@H](O[C@H]2C[C@@H](O)[C@]3(CO)[C@H]4[C@H](O)C[C@]5(C)[C@@H](C6=CC(=O)OC6)CC[C@]5(O)[C@@H]4CC[C@]3(O)C2)[C@H](O)[C@H](O)[C@H]1O [ouabain]
minimum lethal dose for 100% of the animals within 15 minutes from i.v. injection: 240 mg/kg
